# Like-named read-outs stand apart in the source and are kept apart here. Ends that are not written are not given here.
# What was measured:
# E. coli TOP10 = experiment: Suicide expression system (SES) growth inhibition; type: cell-based; settings: Table 5; mixed-motif library, re-tested in the Bioscreen C
# [1] = system: human red blood cells (hRBC); type: cell-based; settings: red cells of human
# Description: The ability of the antimicrobial peptides to lyse human red blood cells (hRBC) was analyzed. The Red Blood Cell Test assay provides a simple test system that assesses the membranolytic activity of test materials. It is suitable as a screening assay for hemolytic properties. Hemoglobin release is a useful endpoint of cell membrane integrity. Released hemoglobin is detected by measuring absorbance at 540 nm. Normally, the concentration resulting in 50% hemolysis relative to a totally lysed sample (HL50) would be calculated; however due to the low hemolytic activity of the tested peptides, this was not done in this Example. An 8% RBC suspension (12 days old) was used in the present test setup.
# Since the peptides were dissolved in 0.01% acetic acid, vehicle control of the 0.01% acetic acid was included. PBS with 25%, 10%, and 5% 0.01% acetic acid was included on both plates.
# To verify that a dose/response effect exists, the hemolytic activity of SDS was also tested.
Substance,Growth inhibition (%) (E. coli TOP10),further results
296 (RRRPPRLPRPVPFRPPPRVPRPIPFRP; Synthetic antimicrobial peptide) [compound 296],88,–
297 (RRRPPRLPRPVPFRPPPRVPRPIPVRP; Synthetic antimicrobial peptide) [compound 297],90,–
298 (RRRPPRLPRPVPFRPPPRVPRPVPLRP; Synthetic antimicrobial peptide) [compound 298],92,–
299 (RRRPPRLPRPVPIRPPPRFPRPIPFRP; Synthetic antimicrobial peptide) [compound 299],96,–
300 (RRRPPRLPRPVPIRPPPRIPRPIPFRP; Synthetic antimicrobial peptide) [compound 300],92,–
301 (RRRPPRLPRPVPIRPPPRVPRPVPLRP; Synthetic antimicrobial peptide) [compound 301],92,–
302 (RRRPPRLPRPVPLRPPPRFPRPVPVRP; Synthetic antimicrobial peptide) [compound 302],82,–
303 (RRRPPRLPRPVPLRPPPRVPRPLPIRP; Synthetic antimicrobial peptide) [compound 303],91,–
304 (RRRPPRLPRPVPVRPPPRFPRPVPIRP; Synthetic antimicrobial peptide) [compound 304],90,–
305 (RRRPPRLPRPVPVRPPPRFPRPVPVRP; Synthetic antimicrobial peptide) [compound 305],90,–
306 (RRRPPRLPRPVPVRPPPRFPRPVPVRP; Synthetic antimicrobial peptide) [compound 306],90,–
307 (RRRPPRLPRPVPVRPPPRVPRPVPFRP; Synthetic antimicrobial peptide) [compound 307],92,–
308 (RRRPPRLPRPVPVRPPPRVPRPVPVRP; Synthetic antimicrobial peptide) [compound 308],96,–
309 (RRRPPRVPRPFPIRPPPRVPRPIPFRP; Synthetic antimicrobial peptide) [compound 309],76,–
310 (RRRPPRVPRPFPIRPPPRVPRPVPVRP; Synthetic antimicrobial peptide) [compound 310],93,–
311 (RRRPPRVPRPFPVRPPPRFPRPVPFRP; Synthetic antimicrobial peptide) [compound 311],96,–
312 (RRRPPRVPRPIPIRPPPRVPRPVPFRP; Synthetic antimicrobial peptide) [compound 312],93,–
313 (RRRPPRVPRPIPIRPPPRVPRPVPVRP; Synthetic antimicrobial peptide) [compound 313],92,–
314 (RRRPPRVPRPLPFRPPPRFPRPIPFRP; Synthetic antimicrobial peptide) [compound 314],94,–
315 (RRRPPRVPRPVPVRPPPRIPRPFPVRP; Synthetic antimicrobial peptide) [compound 315],98,–
316 (RRRTRHVFARPFPFRPPPRIPRPFPLRP; Synthetic antimicrobial peptide) [compound 316],97,–
317 (RRRTRHVFARPVPVRPPPRVPRPFPVRP; Synthetic antimicrobial peptide) [compound 317],95,–
318 (RRRTRHVVPRPLPVRPPPRVPRPFPLRP; Synthetic antimicrobial peptide) [compound 318],93,–
319 (RRRPPRVPRPFPVRPPPRVPRPIPFVHNCSRTKTHLRRGSE; Synthetic antimicrobial peptide) [compound 319],93,–
RRRPFRPPFRPPFRPPVRPPVRPPFRP [SEQ ID NO: 79],–,Hemolysis (%) ([1]; 47 micrograms/ml): 16%; Hemolysis (%) ([1]; 94 micrograms/ml): 16%; Hemolysis (%) ([1]; 188 micrograms/ml): 17%; Hemolysis (%) ([1]; 375 micrograms/ml): 17%
RRRPPRLPRPFPVRPPPRFPRPFPLRP [SEQ ID NO: 239],–,Hemolysis (%) ([1]; 47 micrograms/ml): 19%; Hemolysis (%) ([1]; 94 micrograms/ml): 16%; Hemolysis (%) ([1]; 188 micrograms/ml): 16%; Hemolysis (%) ([1]; 375 micrograms/ml): 18%
RRRPRPVPRPFPRPVPRPLPRPFPRPF [SEQ ID NO: 61],–,Hemolysis (%) ([1]; 47 micrograms/ml): 16%; Hemolysis (%) ([1]; 94 micrograms/ml): 16%; Hemolysis (%) ([1]; 188 micrograms/ml): 16%; Hemolysis (%) ([1]; 375 micrograms/ml): 17%
